Laboratory results: ChEMBL document CHEMBL6092147, “Design of inhibitors of SARS-CoV-2 papain-like protease deriving from GRL0617: Structure-activity relationships” (Bioorg Med Chem, 2024)
pIC50, pKd: −log10 of the molar value.

Legend:
[1] = biological target: T1, Replicase polyprotein 1ab (Severe acute respiratory syndrome coronavirus 2, UniProt P0DTD1); test: Inhibition of SARS-CoV-2 wild type PLpro (1563 to 1878 residues) extracted from Escherichia coli Rosetta 2 (DE3) cells by Fluorescence polarization assay
[2] = biological target: T1, Replicase polyprotein 1ab; test: Inhibition of SARS-CoV-2 wild type PLpro extracted from Escherichia coli Rosetta 2(DE3) cells by fluorescence based analysis
[3] = biological target: T1, Replicase polyprotein 1ab; test: Inhibition of N-terminal 6-His-tagged SARS-CoV-2 PLpro BetaCoV/Wuhan/WIV04/2019 (1524 to 1883 residues) extracted from Escherichia coli BL21 (DE3) cells using Dabcyl-KTSAVLQ/SGFRKME as substrate pretreated for 30 mins followed by substrate addition measured for 1 hr by TR-FRET analysis
[4] = biological target: T1, Replicase polyprotein 1ab; test: Inhibition of His-tagged SARS-CoV-2 papain-like protease (PLpro) incubated for 30 mins by FRET assay
[5] = biological target: T1, Replicase polyprotein 1ab; test: Binding affinity to SARS-CoV-2 3CL protease extracted from Escherichia coli BL21 (DE3) Rosetta cells assessed as dissociation constant
[6] = biological target: T1, Replicase polyprotein 1ab; test: Inhibition of SARS-CoV-2 3CL protease extracted from Escherichia coli BL21 (DE3) Rosetta cells using DabcylKNSTLQSGLRKE-Edan as substrate preincubated for 60 mins followed by substrate addition and measured after 20 mins by FRET assay
[7] = biological target: T1, Replicase polyprotein 1ab; test: Inhibition of SARS-CoV-2 PLpro using Ubiquitin-AMC as substrate by enzymatic assay
[8] = biological target: T1, Replicase polyprotein 1ab; test: Inhibition of C-terminal His-tagged SARS-CoV-2 papain-like protease (PLpro) (1564 to 1876 residues) extracted from Escherichia coli BL21 (DE3) cells using Dabcyl-KTSAVLQ/SGFRKME as substrate incubated for 60 mins by FRET assay

COc1cc(CNC(=O)C2CN(C(C)c3cccc4ccccc34)C2)ccn1 (racemic)
pIC50 [1]: 4.56

COc1cc(CNC(=O)C2CCN(C(C)c3cccc4ccccc34)CC2)ccn1 (racemic)
pIC50 [1]: 5.96

C[C@H](c1cccc2ccccc12)N1CCC(C(=O)NCc2cc(F)cc(NC(=O)N3CCN(C)CC3)c2)CC1
pIC50 [2]: 6.00

C[C@H](c1cccc2ccccc12)N1CCC(C(=O)NCc2ccc(S(N)(=O)=O)cc2)CC1
pIC50 [3]: 6.22

C[C@H](c1cccc2ccccc12)N(C)Cc1ccc(OCC(N)=O)cc1
pIC50 [4]: 5.55

CCC(C(=O)Nc1cc(NC2COC2)ccc1C)n1cc(F)cc2nc(SCc3ccc(F)cc3)nc1-2 (racemic)
pKd [5]: 6.40 | pIC50 [6]: 6.40

CC(=O)Nc1ccc(C)c(C(=O)NC(C)c2cccc3ccccc23)c1 (stereo not drawn)
pIC50 [7]: 4.96

CCC(C(=O)Nc1cc(NC2CCOC2)ccc1C)n1cc(Br)cc2nc(SCc3ccc(F)cc3)nc1-2 (racemic)
pKd [5]: 5.85 | pIC50 [6]: 6.30

C[C@H](c1cccc2ccccc12)N(C)Cc1ccc2cccc(O)c2n1
pIC50 [8]: < 4.70

Cc1ccc(N)cc1CN[C@H](C)c1cccc2ccccc12
pIC50 [7]: 4.39

COc1cc(CNC(=O)C2CC3(C2)CN([C@H](C)c2cccc4ccccc24)C3)ccn1
pIC50 [1]: 5.27
